Values quoted from earlier work as cited in US20190192601A1, “EXTRACTS OF CYCLANTHERA PEDATA AND FORMULATIONS AND USES THEREOF” (priority 2014, published 2019).

Assays:
[1] = in vivo

Row | Compound | plasma lipid levels [1] | lower risk of heart disease (patients; supplementation with 30 IU to 100 IU) | progression of coronary artery disease (patients; supplementation with 100 IU)
1 | O=C(CCCN1CCN(c2ccc(F)cc2)CC1)NC1c2ccccc2CSc2ccccc21 (stereo not drawn) [Monatepil] | found to reduce |  | 
2 | vitamin E |  | 41% | reduced progression
